In the CheMixHub ionic liquid set:
± gives the uncertainty stated by the source.

Assay: xn = mol fraction of the nth substance listed

CCOS(=O)(=O)[O-].CC[n+]1ccn(C)c1 + CCCCCCO
100 kPa
Settings | viscosity [mPa·s]
288.15 K, x1 = 1 | 155.5 ± 2.7
293.15 K, x1 = 0.1016 | 7.885 ± 0.086
303.15 K, x1 = 0.5956 | 27.85 ± 0.3
323.15 K, x1 = 0.4975 | 11.85 ± 0.13

CCCC[n+]1ccn(C)c1.O=[N+]([O-])[O-] + CCCCCO
100 kPa
Settings | viscosity [mPa·s]
293.15 K, x1 = 0.4363 | 18.2 ± 1.5
293.15 K, x1 = 0.5668 | 29.3 ± 2.4
293.15 K, x1 = 0.7481 | 61 ± 4.9
313.15 K, x1 = 0.6481 | 18.9 ± 1.5
313.15 K, x1 = 0.8416 | 38.7 ± 3.1
313.15 K, x1 = 0.9415 | 57.5 ± 4.7
323.15 K, x1 = 0.0824 | 2.22 ± 0.18
323.15 K, x1 = 0.9415 | 35.5 ± 2.9

CCCC[n+]1ccn(C)c1.O=[N+]([O-])[O-] + CCCCO
101 kPa
Settings | viscosity [mPa·s]
283.15 K, x2 = 0.456 | 47.92 ± 0.82
288.15 K, x2 = 0.26 | 94.8 ± 3
288.15 K, x2 = 0.565 | 23.86 ± 0.35
293.15 K, x2 = 0.565 | 19.88 ± 0.29
293.15 K, x2 = 0.848 | 5.88 ± 0.08
298.15 K, x2 = 0.129 | 97 ± 3.1
298.15 K, x2 = 0.456 | 25.72 ± 0.38
298.15 K, x2 = 0.565 | 16.79 ± 0.24
303.15 K, x2 = 0.26 | 43.31 ± 0.69
303.15 K, x2 = 0.565 | 14.34 ± 0.2
308.15 K, x2 = 0.129 | 56.32 ± 0.79
308.15 K, x2 = 0.26 | 35.31 ± 0.55
308.15 K, x2 = 0.65 | 8.91 ± 0.12
308.15 K, x2 = 0.753 | 5.59 ± 0.07
313.15 K, x2 = 0.361 | 21.55 ± 0.31
313.15 K, x2 = 0.565 | 10.76 ± 0.15
313.15 K, x2 = 0.65 | 7.8 ± 0.1
313.15 K, x2 = 0.753 | 4.91 ± 0.06
318.15 K, x2 = 0.26 | 24.53 ± 0.37
318.15 K, x2 = 0.565 | 9.44 ± 0.13
323.15 K, x2 = 0.361 | 15.85 ± 0.23
323.15 K, x2 = 0.753 | 3.92 ± 0.05
333.15 K, x2 = 0.361 | 12.03 ± 0.17
333.15 K, x2 = 0.565 | 6.56 ± 0.09

CC[n+]1ccn(CCOC)c1.N#C[S-] + CCCCO
viscosity [mPa·s], 100 kPa
Settings | x1 = 0.1 | x1 = 0.1999 | x1 = 0.2996 | x1 = 0.4001 | x1 = 0.4996 | x1 = 0.5995 | x1 = 0.6979 | x1 = 0.7993 | x1 = 0.9 | x1 = 1
288.15 K | 4.85 ± 0.27 | 6.76 ± 0.38 | 9.62 ± 0.53 | 13.89 ± 0.77 | 20 ± 1.1 | 27.4 ± 1.5 | 40.1 ± 2.2 | 53 ± 2.9 | 72 ± 4 | 93.1 ± 5.3
293.15 K | 4.22 ± 0.23 | 5.84 ± 0.32 | 8.21 ± 0.46 | 11.73 ± 0.65 | 16.88 ± 0.93 | 22.5 ± 1.3 | 32.3 ± 1.8 | 42.1 ± 2.3 | 56.5 ± 3.1 | 70.8 ± 3.9
298.15 K | 3.73 ± 0.21 | 5.1 ± 0.28 | 7.11 ± 0.39 | 10.04 ± 0.56 | 14.26 ± 0.79 | 19 ± 1 | 26.4 ± 1.5 | 34.1 ± 1.9 | 44.9 ± 2.5 | 55.8 ± 3
303.15 K | 3.3 ± 0.18 | 4.49 ± 0.25 | 6.22 ± 0.34 | 8.68 ± 0.48 | 12.18 ± 0.67 | 16.18 ± 0.89 | 22 ± 1.2 | 28 ± 1.5 | 36.4 ± 2 | 44.3 ± 2.4
308.15 K | 2.93 ± 0.16 | 4.01 ± 0.22 | 5.48 ± 0.3 | 7.57 ± 0.42 | 10.46 ± 0.58 | 13.82 ± 0.76 | 18.7 ± 1 | 23.4 ± 1.3 | 30 ± 1.6 | 36 ± 2
313.15 K | 2.62 ± 0.15 | 3.57 ± 0.2 | 4.86 ± 0.27 | 6.66 ± 0.37 | 9.07 ± 0.5 | 11.91 ± 0.66 | 16.06 ± 0.88 | 19.9 ± 1.1 | 25.1 ± 1.4 | 29.7 ± 1.6
318.15 K | 2.35 ± 0.13 | 3.21 ± 0.18 | 4.34 ± 0.24 | 5.9 ± 0.33 | 7.94 ± 0.44 | 10.35 ± 0.57 | 13.87 ± 0.76 | 17.27 ± 0.95 | 21.3 ± 1.2 | 24.9 ± 1.4

CCCCCCCC[n+]1ccccc1.O=S(=O)([N-]S(=O)(=O)C(F)(F)F)C(F)(F)F + CCCCOC(C)=O
Settings | electrical conductivity [S/m]
298.15 K, 100 kPa, x2 = 0.6824 | 0.371 ± 0.007

CC(=O)[O-].Cn1cc[nH+]c1 + CCCC[N+]1(C)CCCC1.O=S(=O)([N-]S(=O)(=O)C(F)(F)F)C(F)(F)F
298.15 K, 100 kPa
Settings | viscosity [mPa·s]
x1 = 0.19 | 52.7 ± 1.1
x1 = 0.5 | 26.9 ± 0.6
x1 = 1 | 6.22 ± 0.14
